# Laboratory results from PMC7104201 (iScience, 2020).
# Molecular target: CatB (Homo sapiens, UniProt P07858)
# Assay type: biochemical
# Conditions: pH 5
substance,measurement,value
CA-074 methyl ester [CatB inhibitor],blocking of CatB-dependent cleavage of EBOV GP,effectively blocked
